Assay results taken from article PMC12344693, “Human Milk Oligosaccharides Multivalently Presented on Defined Synthetic Neo-Glycoproteins Are Nanomolar Ligands of Tandem-Repeat Galectins” (Biomacromolecules, 2025).
“And” between values parts separate entries of the source, which are not always exact repeats. Equal values may be shown once. Read-outs that look alike come from different tables or passages of the source. One block for each molecule: values may come before it.

Experiments:
[1] = molecular target: T1, Gal-8 (Homo sapiens, UniProt O00214); test: competitive ELISA, inhibition of galectin binding to immobilized asialofetuin; details: competitive ELISA vs immobilized ASF; 0.5 μM Gal-8; at least quadruplicate
T1 construct: Full-length recombinant human galectins (Gal-1, Gal-3, Gal-4, Gal-8, and Gal-9) for ELISA assays; made in house; host or cells: E. coli Rosetta 2(DE3)pLysS
T1 sequence (O00214 1-317): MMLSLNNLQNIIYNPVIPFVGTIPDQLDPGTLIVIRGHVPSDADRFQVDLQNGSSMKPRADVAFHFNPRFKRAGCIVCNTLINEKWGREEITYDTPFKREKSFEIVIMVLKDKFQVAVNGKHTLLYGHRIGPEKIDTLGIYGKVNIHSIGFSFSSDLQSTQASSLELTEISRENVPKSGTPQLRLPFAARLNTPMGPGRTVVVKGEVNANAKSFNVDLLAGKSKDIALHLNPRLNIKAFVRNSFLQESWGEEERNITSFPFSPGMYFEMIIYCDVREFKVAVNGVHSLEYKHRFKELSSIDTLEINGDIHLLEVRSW
Experimental: (§1) The inhibitory potential of the prepared glycan library and the respective multivalent neo-glycoproteins with Gal-1, -3, -4, -8, and -9 was evaluated using a competitive ELISA assay as described by Vašíček et al. Asialofetuin (ASF; 0.1 μM in PBS, 50 μL/well) was immobilized onto microtiter plates (Nunc Immuno Sorb, ThermoFisher Scientific, USA) overnight at 4 °C. Wells were subsequently washed three times with PBS containing 0.05%, v/v, Tween-20 (250 μL/wash). Each assay step was followed by a washing step to ensure the thorough removal of unbound reagents. Blocking was performed using 2%, w/v, BSA in PBS (250 μL/well) for 1 h at room temperature. Serial dilutions of the inhibitors prepared in EPBS buffer (PBS containing 2 mM EDTA) were incubated with a constant concentration of galectin (2.5 μM Gal-1, Gal-3, and Gal-4; 0.5 μM Gal-8 and Gal-9) for 2 h. […] Residual galectin bound to ASF was detected using the anti-His-tag antibody conjugated to horseradish peroxidase (Santa Cruz Biotechnology, 1:999 dilution in PBS). Detection was achieved by adding 50 μL of TMB One substrate solution (Kem-En-Tech, Denmark), which developed a blue color that turned yellow upon the addition of 50 μL of 3 M HCl. Absorbance at 450 nm was measured using a microplate reader (Sunrise, Tecan Group Ltd., Switzerland) reflecting the amount of galectin bound to the wells. Half-maximal inhibitory concentration (IC50) values were calculated by nonlinear regression (dose–response inhibition with variable slope) of sigmoidal curves using GraphPad Prism version 8.4.3 (GraphPad Software, USA).
(§2) Serially diluted ligands and NGPs were incubated with individual galectin species in the wells coated with asialofetuin (ASF). The remaining galectin bound to the immobilized ASF was detected using an anti-His6 antibody.

[2] = molecular target: T2, Gal-9 (Homo sapiens, UniProt O00182, A222P/DEL149-219); test: as above; details: competitive ELISA vs immobilized ASF; 0.5 μM Gal-9; at least quadruplicate
T2 construct: Full-length recombinant human galectins (Gal-1, Gal-3, Gal-4, Gal-8, and Gal-9) for ELISA assays; made in house; host or cells: E. coli Rosetta 2(DE3)pLysS
T2 sequence (O00182 with tags, fused parts or gaps DEL149-219/A222P): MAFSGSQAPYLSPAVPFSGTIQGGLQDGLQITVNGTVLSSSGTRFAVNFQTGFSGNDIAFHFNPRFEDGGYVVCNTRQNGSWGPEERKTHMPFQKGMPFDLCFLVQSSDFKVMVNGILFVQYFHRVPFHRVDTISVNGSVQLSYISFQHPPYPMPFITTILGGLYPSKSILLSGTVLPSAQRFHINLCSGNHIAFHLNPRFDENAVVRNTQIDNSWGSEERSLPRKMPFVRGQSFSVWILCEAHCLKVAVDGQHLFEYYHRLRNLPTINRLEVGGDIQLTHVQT
Experimental: as §1, §2

[3] = molecular target: T3, Gal-4 (Homo sapiens, UniProt P56470); design: method as in previously published by us; details: competitive ELISA vs immobilized ASF; footnote b; ref previously published by us; cited from earlier work
T3 construct: Full-length recombinant human galectins (Gal-1, Gal-3, Gal-4, Gal-8, and Gal-9) for ELISA assays; made in house; host or cells: E. coli Rosetta 2(DE3)pLysS
T3 sequence (P56470 1-323): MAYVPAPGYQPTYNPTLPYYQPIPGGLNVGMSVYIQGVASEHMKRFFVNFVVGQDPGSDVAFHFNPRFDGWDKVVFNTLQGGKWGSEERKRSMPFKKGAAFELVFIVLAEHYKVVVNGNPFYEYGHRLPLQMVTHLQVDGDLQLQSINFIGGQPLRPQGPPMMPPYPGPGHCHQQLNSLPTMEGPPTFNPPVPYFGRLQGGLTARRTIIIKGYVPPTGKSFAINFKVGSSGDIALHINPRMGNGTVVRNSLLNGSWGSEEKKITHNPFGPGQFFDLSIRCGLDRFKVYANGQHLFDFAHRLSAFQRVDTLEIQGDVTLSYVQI

[4] = molecular target: Gal-1 (Homo sapiens, UniProt P09382, C3S); test: competitive ELISA, inhibition of galectin binding to immobilized asialofetuin
Chain of Gal-1 (P09382 whole entry C3S): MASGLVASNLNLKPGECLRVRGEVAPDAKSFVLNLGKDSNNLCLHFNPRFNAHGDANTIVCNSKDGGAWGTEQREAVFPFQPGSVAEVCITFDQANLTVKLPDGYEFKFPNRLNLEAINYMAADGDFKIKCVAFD
Experimental: as §1, §2

[5] = molecular target: Gal-3 (Homo sapiens, UniProt P17931); test: as above
Chain of Gal-3 (P17931 whole entry): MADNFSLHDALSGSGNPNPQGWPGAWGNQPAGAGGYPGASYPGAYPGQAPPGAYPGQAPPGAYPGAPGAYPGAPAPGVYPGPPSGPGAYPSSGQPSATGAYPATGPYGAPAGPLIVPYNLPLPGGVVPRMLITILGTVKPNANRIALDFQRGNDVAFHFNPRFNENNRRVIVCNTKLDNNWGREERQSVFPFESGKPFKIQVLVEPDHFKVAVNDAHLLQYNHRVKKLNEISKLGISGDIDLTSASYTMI
Experimental: as §1, §2

[6] = molecular target: T3, Gal-4; test: as above; details: competitive ELISA vs immobilized ASF; 2.5 μM Gal-4; at least quadruplicate
Experimental: as §1, §2

SMILES: CC(C)(C)OC(=O)NCCNC(=S)N[C@@H]1O[C@H](CO)[C@@H](O[C@@H]2O[C@H](CO)[C@H](O)[C@H](O)[C@H]2O)[C@H](O)[C@H]1O [Compound 1, (tert-butoxycarbonylamino)ethylthioureidyl β-D-galactopyranosyl-(1→4)-β-D-glucopyranoside]
IC50 [1]: 2870 ± 470 µM
IC50 [2]: 2180 ± 670 µM
IC50 [3]: 2520 ± 180 µM
IC50 [4]: 286 ± 23 µM
IC50 [5]: 136 ± 18 µM

SMILES: CC(=O)N[C@H]1[C@H](O[C@H]2[C@@H](O)[C@@H](CO)O[C@@H](O[C@H]3[C@H](O)[C@@H](O)[C@H](NC(=S)NCCNC(=O)OC(C)(C)C)O[C@@H]3CO)[C@@H]2O)O[C@H](CO)[C@@H](O)[C@@H]1O[C@@H]1O[C@H](CO)[C@H](O)[C@H](O)[C@H]1O [Compound 3, (tert-Butoxycarbonylamino)ethylthioureidyl β-D-galactopyranosyl-(1→3)-2-acetamido-2-deoxy-β-D-glucopyranosyl-(1→3)-β-D-galactopyranosyl-(1→4)-β-D-glucopyranoside]
IC50 [6]: 108 ± 16 µM
IC50 [1]: 820 ± 140 µM
IC50 [2]: 230 ± 43 µM
IC50 [4]: > 500 µM
IC50 [5]: 15.2 ± 1 µM

SMILES: CC(=O)N[C@H]1[C@H](O[C@H]2[C@@H](O)[C@@H](CO)O[C@@H](O[C@H]3[C@H](O)[C@@H](O)[C@H](NC(=S)NCCNC(=O)OC(C)(C)C)O[C@@H]3CO)[C@@H]2O)O[C@H](CO)[C@@H](O[C@@H]2O[C@H](CO)[C@H](O)[C@H](O)[C@H]2O)[C@@H]1O [Compound 4, (tert-Butoxycarbonylamino)ethylthioureidyl β-D-galactopyranosyl-(1→4)-2-acetamido-2-deoxy-β-D-glucopyranosyl-(1→3)-β-D-galactopyranosyl-(1→4)-β-D-glucopyranoside]
IC50 [1]: 130 ± 30 µM
IC50 [2]: 170 µM and 168 µM
IC50 [3]: 620 ± 100 µM
IC50 [4]: 436 ± 41 µM
IC50 [5]: 7.3 ± 1.6 µM

SMILES: CC(=O)N[C@H]1[C@H](O[C@H]2[C@@H](O)[C@@H](CO)O[C@@H](O[C@H]3[C@H](O)[C@@H](O)[C@H](NC(=S)NCCNC(=O)OC(C)(C)C)O[C@@H]3CO)[C@@H]2O)O[C@H](CO)[C@@H](O[C@@H]2O[C@H](CO)[C@H](O)[C@H](O)[C@H]2NC(C)=O)[C@@H]1O [Compound 5, (tert-Butoxycarbonylamino)ethylthioureidyl 2-acetamido-2-deoxy-β-D-galactopyranosyl-(1→4)-2-acetamido-2-deoxy-β-D-glucopyranosyl-(1→3)-β-D-galactopyranosyl-(1→4)-2-β-D-glucopyranoside]
IC50 [6]: 1620 ± 260 µM
IC50 [1]: 75 ± 9 µM
IC50 [2]: 326 ± 26 µM
IC50 [4]: 435 ± 102 µM
IC50 [5]: 2.2 ± 1.3 µM

IC50 [6]: 8630 ± 530 µM
IC50 [1]: 18700 µM
IC50 [2]: 2840 ± 650 µM
IC50 [4]: 79 ± 9 µM
IC50 [5]: 47 ± 6 µM
SMILES: CC(=O)N[C@@H]1[C@@H](O)[C@H](O[C@@H]2O[C@H](CO)[C@H](O)[C@H](O)[C@H]2O)[C@@H](CO)O[C@H]1NC(=S)NCCNC(=O)OC(C)(C)C [Compound 7, Galβ4GlcNAc-tBoc]

SMILES: CC(=O)N[C@@H]1[C@@H](O)[C@H](O[C@@H]2O[C@H](CO)[C@H](O)[C@H](O[C@@H]3O[C@H](CO)[C@@H](O)[C@H](O[C@@H]4O[C@H](CO)[C@H](O)[C@H](O)[C@H]4O)[C@H]3NC(C)=O)[C@H]2O)[C@@H](CO)O[C@H]1NC(=S)NCCNC(=O)OC(C)(C)C [Compound 9, (tert-Butoxycarbonylamino)ethylthioureidyl β-D-galactopyranosyl-(1→3)-2-acetamido-2-deoxy-β-D-glucopyranosyl-(1→3)-β-D-galactopyranosyl-(1→4)-2-acetamido-2-deoxy-β-D-glucopyranoside]
IC50 [6]: 2380 ± 670 µM
IC50 [1]: > 5000 µM
IC50 [2]: > 5000 µM
IC50 [4]: > 500 µM
IC50 ([5]; read-out: IC50 Gal-3, Table S9, competitive ELISA vs immobilized ASF, […] Gal-3, unit inferred): 27 ± 4 µM

SMILES: CC(=O)N[C@@H]1[C@@H](O)[C@H](O[C@@H]2O[C@H](CO)[C@H](O)[C@H](O[C@@H]3O[C@H](CO)[C@@H](O[C@@H]4O[C@H](CO)[C@H](O)[C@H](O)[C@H]4O)[C@H](O)[C@H]3NC(C)=O)[C@H]2O)[C@@H](CO)O[C@H]1NC(=S)NCCNC(=O)OC(C)(C)C [Compound 10, (tert-Butoxycarbonylamino)ethylthioureidyl β-D-galactopyranosyl-(1→4)-2-acetamido-2-deoxy-β-D-glucopyranosyl-(1→3)-β-D-galactopyranosyl-(1→4)-2-acetamido-2-deoxy-β-D-glucopyranoside]
IC50 [6]: 2390 ± 490 µM
IC50 [1]: 406 ± 46 µM
IC50 [2]: 52 ± 23 µM
IC50 [4]: 106 ± 7 µM
IC50 [5]: 12 ± 1 µM

SMILES: CC(=O)N[C@@H]1[C@@H](O)[C@H](O[C@@H]2O[C@H](CO)[C@H](O)[C@H](O[C@@H]3O[C@H](CO)[C@@H](O[C@@H]4O[C@H](CO)[C@H](O)[C@H](O)[C@H]4NC(C)=O)[C@H](O)[C@H]3NC(C)=O)[C@H]2O)[C@@H](CO)O[C@H]1NC(=S)NCCNC(=O)OC(C)(C)C [Compound 11, (tert-Butoxycarbonylamino)ethylthioureidyl 2-acetamido-2-deoxy-β-D-galactopyranosyl-(1→4)-2-acetamido-2-deoxy-β-D-glucopyranosyl-(1→3)-β-D-galactopyranosyl-(1→4)-2-acetamido-2-deoxy-β-D-glucopyranoside]
IC50 [6]: 2010 ± 1000 µM
IC50 [1]: 270 ± 85 µM
IC50 [2]: 260 ± 75 µM
IC50 [4]: 98 ± 22 µM
IC50 [5]: 2.7 ± 2.4 µM
